How the values were obtained:
Assay type in all cases: in vivo
[1] = system: wheat; test: Test Example 4: phytotoxicity to upland crop plants, treatment after emergence; conditions: dosage 5 kg/ha, sprayed after emergence, judged 14 days after treatment
Method in brief: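 Scores of weed-killing rate, with crop phytotoxicity, come from inspection 14 days after plants in soil vats, grown to specified leaf stages, are sprayed with a formulation holding the compound at a prescribed concentration.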

[2] = system: soybean plant; test: as above; conditions: dosage 5 kg/ha, sprayed after emergence, judged 14 days after treatment
Method in brief: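 Seeds sown in soil and covered. Plants raised to specified leaf stages. Agent with test compound at a prescribed concentration sprayed. Herbicidal effect and crop damage scored after 14 days as weed-killing rate.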

[3] = system: barnyard grass (Echinochloa crus-galli Beauv.), Ec; test: Test Example 3: herbicidal effect on upland weeds before emergence; conditions: dosage 5 kg/ha
Method in brief: (§1)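 Steps: sow upland weed seeds; spray liquid formulation of active ingredient at prescribed concentration prior to emergence; after 14 days, calculate weed-killing rate; judge herbicidal effect.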

[4] = system: forxtail grass (Alopecurus aequalis var. amurensis Ohwi), Am; test: as above; conditions: foxtail grass, dosage 5 kg/ha
Method in brief: as §1

[5] = system: velvetleaf (Abutilon theophtasti L.), At; test: as above; conditions: dosage 5 kg/ha
Method in brief: as §1

[6] = system: bird's eye speedwell (Veronica persica Poir.), Vp; test: as above; conditions: dosage 5 kg/ha
Method in brief: as §1

[7] = system: cocklebur (Xanthium strumarium L.), Xs; test: as above; conditions: dosage 5 kg/ha
Method in brief: as §1

[8] = system: cleavers (Galium aparine L.), Ga; test: as above; conditions: dosage 5 kg/ha
Method in brief: as §1

[9] = system: monochoria (Monochoria vaginalis Presl); test: Test Example 2: herbicidal effect on paddy field weeds after emergence; conditions: Dosage 5 kg/ha; one-leaved stage; 21 days after treatment
Method in brief: (§2)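 Weeds were sown in 1/10000 are pots of soil flooded to paddy conditions and grown to the one-leaf stage, then the soil was treated with a solution of compound at a predetermined dosage.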

[10] = system: barnyard grass (Echinochloa crus-galli Beauv.); test: as above; conditions: Dosage 5 kg/ha; one-leaved stage; 21 days after treatment
Method in brief: as §2

[11] = system: bulrush (Scirpus juncoides Roxb.); test: as above; conditions: Dosage 5 kg/ha; one-leaved stage; 21 days after treatment
Method in brief: as §2

[12] = system: barnyard grass (Echinochloa crus-galli Beauv.); test: Test Example 1: herbicidal effect on paddy field weeds before emergence; conditions: Dosage 5 kg/ha
Method in brief: (§3)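 Seeds of both weeds, still ungerminated, in soil pots held under paddy conditions received a set dose of test solution as soil treatment. After twenty-one days, control relative to untreated pots was calculated and rated on a scoring scale.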

[13] = system: bulrush (Scirpus juncoides Roxb.); test: as above; conditions: Dosage 5 kg/ha
Method in brief: as §3

[14] = system: barnyard grass (Echinochloa crus-galli Beauv.), Ec; test: Test Example 4: herbicidal effect on upland weeds after emergence; conditions: dosage 5 kg/ha; sprayed after emergence; judged 14 days after treatment
Method in brief: (§4)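 Post-emergence foliar spray at a prescribed concentration, applied once the sown weeds and soybean reached defined leaf stages in soil vats; herbicidal effect and soybean injury scored after 14 days.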

[15] = system: forxtail grass (Alopecurus aequalis var. amurensis Ohwi), Am; test: as above; conditions: dosage 5 kg/ha; sprayed after emergence; judged 14 days after treatment
Method in brief: as §4

[16] = system: velvetleaf (Abutilon theophtasti L.), At; test: as above; conditions: dosage 5 kg/ha; sprayed after emergence; judged 14 days after treatment
Method in brief: as §4

[17] = system: bird's eye speedwell (Veronica persica Poir.), Vp; test: as above; conditions: dosage 5 kg/ha; sprayed after emergence; judged 14 days after treatment
Method in brief: as §4

[18] = system: cocklebur (Xanthium strumarium L.), Xs; test: as above; conditions: dosage 5 kg/ha; sprayed after emergence; judged 14 days after treatment
Method in brief: as §4

[19] = system: cleavers (Galium aparine L.), Ga; test: as above; conditions: dosage 5 kg/ha; sprayed after emergence; judged 14 days after treatment
Method in brief: as §4

[20] = system: soybean plant (So); test: Test Example 3: phytotoxicity to upland crop plants, treatment before emergence; conditions: dosage 5 kg/ha
Method in brief: (§5)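 Crop injury to soybean and wheat was judged on a phytotoxicity scale 14 days after a pre-emergence spray of a liquid formulation at a prescribed concentration of compound.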

[21] = system: wheat (Wh); test: as above; conditions: dosage 5 kg/ha
Method in brief: as §5

Row | SMILES | Phytotoxicity Wh [1] | Phytotoxicity So [2] | Herbicidal effect Ec [3] | Herbicidal effect Am [4] | Herbicidal effect At [5] | Herbicidal effect Vp [6] | Herbicidal effect Xs [7] | Herbicidal effect Ga [8] | Post-emergence treatment Monochoria (herbicidal effect) [9] | Post-emergence treatment Barnyard grass (herbicidal effect) [10] | Post-emergence treatment Bulrush (herbicidal effect) [11] | Pre-emergence treatment Barnyard grass (herbicidal effect) [12] | Pre-emergence treatment Bulrush (herbicidal effect) [13] | Herbicidal effect Ec [14] | Herbicidal effect Am [15] | Herbicidal effect At [16] | Herbicidal effect Vp [17] | Herbicidal effect Xs [18] | Herbicidal effect Ga [19] | Phytotoxicity So [20] | other results
1 | CCc1ccc(Cl)c(CC)c1NC(=O)c1cc2cc3c(cc2nc1C(=O)NC1CCCC1)OCO3 [compound 343] | 0 (Crop-killing rate is 0-20% (No Phytotoxicity).) | 0 (Crop-killing rate is 0-20% (No Phytotoxicity).) | 4 (Weed-killing rate is 90-99%.) | 3 (Weed-killing rate is 70-89%.) | 3 (Weed-killing rate is 70-89%.) | 4 (Weed-killing rate is 90-99%.) | 2 (Weed-killing rate is 40-69%.) | 3 (Weed-killing rate is 70-89%.) | 5 (Weed-killing rate is 100%.) | 3 (Weed-killing rate is 70-89%.) | 3 (Weed-killing rate is 70-89%.) | 5 (Weed-killing rate is 100%.) | 3 (Weed-killing rate is 70-89%.) | 4 (Weed-killing rate is 90-99%.) | 2 (Weed-killing rate is 40-69%.) | 3 (Weed-killing rate is 70-89%.) | 3 (Weed-killing rate is 70-89%.) | 2 (Weed-killing rate is 40-69%.) | 2 (Weed-killing rate is 40-69%.) | 0 (Crop-killing rate is 0-20% (No Phytotoxicity).) | Phytotoxicity Wh [21]: 0 (Crop-killing rate is 0-20% (No Phytotoxicity).)
2 | CCCNC(=O)c1nc2ncccc2cc1C(=O)Nc1c(CC)ccc(Cl)c1CC [compound 361] | 5 (Crop-killing rate is 100%.) | 4 (Crop-killing rate is 90-99%.) | 5 (Weed-killing rate is 100%.) | 5 (Weed-killing rate is 100%.) | 5 (Weed-killing rate is 100%.) | 5 (Weed-killing rate is 100%.) | 5 (Weed-killing rate is 100%.) | 5 (Weed-killing rate is 100%.) | 5 (Weed-killing rate is 100%.) | 5 (Weed-killing rate is 100%.) | 5 (Weed-killing rate is 100%.) | 5 (Weed-killing rate is 100%.) | 5 (Weed-killing rate is 100%.) | 5 (Weed-killing rate is 100%.) | 5 (Weed-killing rate is 100%.) | 5 (Weed-killing rate is 100%.) | 5 (Weed-killing rate is 100%.) | 5 (Weed-killing rate is 100%.) | 5 (Weed-killing rate is 100%.) | 4 (Crop-killing rate is 90-99%.) | Phytotoxicity Wh [21]: 4 (Crop-killing rate is 90-99%.)
3 | CCCNC(=O)c1nc2ncccc2cc1C(=O)Nc1cccc(Cl)c1C [compound 375] | 4 (Crop-killing rate is 90-99%.) | 4 (Crop-killing rate is 90-99%.) | 5 (Weed-killing rate is 100%.) | 5 (Weed-killing rate is 100%.) | 5 (Weed-killing rate is 100%.) | 5 (Weed-killing rate is 100%.) | 5 (Weed-killing rate is 100%.) | 5 (Weed-killing rate is 100%.) | 5 (Weed-killing rate is 100%.) | 5 (Weed-killing rate is 100%.) | 5 (Weed-killing rate is 100%.) | 5 (Weed-killing rate is 100%.) | 5 (Weed-killing rate is 100%.) | 5 (Weed-killing rate is 100%.) | 5 (Weed-killing rate is 100%.) | 5 (Weed-killing rate is 100%.) | 5 (Weed-killing rate is 100%.) | 5 (Weed-killing rate is 100%.) | 5 (Weed-killing rate is 100%.) | 3 (Crop-killing rate is 70-89%.) | Phytotoxicity Wh [21]: 3 (Crop-killing rate is 70-89%.)
4 | CCCNC(=O)c1nc2c(cc1C(=O)Nc1c(CC)ccc(Cl)c1CC)CCCO2 [compound 414] | 5 (Crop-killing rate is 100%.) | 4 (Crop-killing rate is 90-99%.) | 5 (Weed-killing rate is 100%.) | 5 (Weed-killing rate is 100%.) | 5 (Weed-killing rate is 100%.) | 5 (Weed-killing rate is 100%.) | 5 (Weed-killing rate is 100%.) | 5 (Weed-killing rate is 100%.) | 5 (Weed-killing rate is 100%.) | 5 (Weed-killing rate is 100%.) | 5 (Weed-killing rate is 100%.) | 5 (Weed-killing rate is 100%.) | 5 (Weed-killing rate is 100%.) | 5 (Weed-killing rate is 100%.) | 5 (Weed-killing rate is 100%.) | 5 (Weed-killing rate is 100%.) | 5 (Weed-killing rate is 100%.) | 5 (Weed-killing rate is 100%.) | 5 (Weed-killing rate is 100%.) | 4 (Crop-killing rate is 90-99%.) | Phytotoxicity Wh [21]: 5 (Crop-killing rate is 100%.)
5 | CCc1ccc(Cl)c(CC)c1NC(=O)c1cc2c(nc1C(=O)NC1CCCC1)OCCC2 [compound 423] | 5 (Crop-killing rate is 100%.) | 4 (Crop-killing rate is 90-99%.) | 5 (Weed-killing rate is 100%.) | 5 (Weed-killing rate is 100%.) | 5 (Weed-killing rate is 100%.) | 5 (Weed-killing rate is 100%.) | 5 (Weed-killing rate is 100%.) | 5 (Weed-killing rate is 100%.) | 5 (Weed-killing rate is 100%.) | 5 (Weed-killing rate is 100%.) | 5 (Weed-killing rate is 100%.) | 5 (Weed-killing rate is 100%.) | 5 (Weed-killing rate is 100%.) | 5 (Weed-killing rate is 100%.) | 5 (Weed-killing rate is 100%.) | 5 (Weed-killing rate is 100%.) | 5 (Weed-killing rate is 100%.) | 5 (Weed-killing rate is 100%.) | 5 (Weed-killing rate is 100%.) | 4 (Crop-killing rate is 90-99%.) | Phytotoxicity Wh [21]: 5 (Crop-killing rate is 100%.)
